Activity data for 37 compounds are collected here from patent US10071081B2, “Compositions of 1,2,4-oxadiazole benzoic acid compounds and methods for their use” (PTC Therapeutics, Inc., priority 2003, dated 2018).

This assay has as its system luciferase reporter construct containing a UGA premature termination codon. In words: cell-based luciferase reporter assay. On the set-up: species or system Human; key to Activity: *****: both extremely high potency and extremely high efficacy of protein synthesis; ****: extremely high potency of protein synthesis and very high efficacy; ****: very high potency of protein synthesis and extremely high efficacy; ***: both very high potency and very high efficacy of protein synthesis; **: very high potency of protein synthesis and significant efficacy; **: significant potency of protein synthesis and very high efficacy; *: significant potency and efficacy of protein synthesis. The conditions noted are these: ranking combining potency and efficacy of protein synthesis; UGA luciferase reporter stably transfected in 293T Human Embryonic Kidney cells. As for the experimental part:
Activity measurements in Table I were performed in a cell-based luciferase reporter assay (as described in Section 4.2) comprising a luciferase reporter construct containing a UGA premature termination codon that was stably transfected in 293T Human Embryonic Kidney cells. A small molecule, 3-[3-(4-Isopropyl-phenyl)-2,5-dioxo-imidazolidin-1-yl]-benzoic acid, known to allow readthrough of premature termination codons was used was used as an internal standard. Activity measurements are based on the qualitative relation between the minimum concentration of compound required to produce a given protein in a cell (potency) and the maximum amount of protein produced by the cell (efficacy). Potency and efficacy activities are ranked as either extremely high, very high or significant. The combination of these activities is used to determine the activity ranking.
Two assays were developed for use in high throughput screens to identify small molecules that promote nonsense suppression. Each assay utilized luciferase because it is a functional reporter gene assay (light is only produced if the protein is functional) and it is extremely sensitive (Light intensity is proportional to luciferase concentration in the nM range). The first assay is a cell-based luciferase reporter assay and the second is a biochemical assay consisting of rabbit reticulocyte lysate and a nonsense-containing luciferase reporter mRNA. In the cell-based assay, a luciferase reporter construct containing a UGA premature termination codon was stably transfected in 293T Human Embryonic Kidney cells. In the biochemical assay, mRNA containing a UGA premature termination codon was used as a reporter in an in vitro translation reaction using rabbit reticulocyte lysate supplemented with tRNA, hemin, creatine kinase, amino acids, KOAc, Mg(OAc)2, and creatine phosphate. […] Synthetic mRNA was prepared in vitro using the T7 promoter and the MegaScript in vitro transcription kit (Ambion).
To determine whether compounds also function in vivo, a stable cell line harboring the UGA nonsense-containing luciferase gene was treated with selected compounds. Cells were grown in standard medium supplemented with 1% penicillin-streptomycin (P/S) and 10% fetal bovine serum (FBS) to 70% confluency and split 1:1 the day before treatment. On the following day, cells were trypsinized and 40,000 cells were added to each well of a 96-well tissue culture dish. Serial dilutions of each compound were prepared to generate a six-point dose response curve spanning 2 logs (30 μM to 0.3 μM). The final concentration of the DMSO solvent remained constant at 1% in each well. Cells treated with 1% DMSO served as the background standard, and cells treated with gentamicin served as a positive control.
For orientation: Reporter assays use an easily measured gene product as a stand-in for the process of interest.
`O=C(O)c1cccc(-c2noc(-c3ccc(Cl)cc3F)n2)c1` [Compound 73, 3-[5-(4-Chloro-2-fluoro-phenyl)-[1,2,4]oxadiazol-3-yl]-benzoic acid]: the Activity result is on record as “****”.

For `[N-]=[N+]=Nc1ccc(-c2nc(-c3cccc(C(=O)O)c3)no2)cc1` [Compound 94, 3-[5-(4-Azido-phenyl)-[1,2,4]oxadiazol-3-yl]-benzoic acid], the Activity result is recorded as “*****”.

For the compound `CC(C)(C)c1nc(-c2cccc(C(=O)O)c2)no1` [Compound 22, 3-(5-tert-Butyl-[1,2,4]oxadiazol-3-yl)-benzoic acid], the Activity result is “*”.

With `Cc1ccccc1-c1nc(-c2cccc(C(=O)O)c2)no1` [Compound 13, 3-[5-(o-tolyl)-[1,2,4]oxadiazol-3-yl]-benzoic acid], the Activity result is listed as “*****”.

Regarding `COCCOC(=O)c1cccc(-c2noc(-c3ccccc3F)n2)c1` [Compound 87, 3-[5-(2-Fluoro-phenyl)-[1,2,4]oxadiazol-3-yl]-benzoic acid 2-methoxy-ethyl ester], the Activity result was “***”.

Consider `O=C(O)c1cccc(-c2noc(-c3cccc(F)c3F)n2)c1` [Compound 67, 3-[5-(2,3-Difluoro-phenyl)-[1,2,4]oxadiazol-3-yl]-benzoic acid], for which the Activity entry is reported as “****”.

`Cc1cc(-c2nc(-c3cccc(C(=O)O)c3)no2)c(C)o1` [Compound 49, 3-[5-(2,5-Dimethyl-furan-3-yl)-[1,2,4]oxadiazol-3-yl]-benzoic acid]: the Activity result was “****”.

For `O=C(O)c1cccc(-c2noc(Cc3cccs3)n2)c1` [Compound 32, 3-(5-Thiophen-2-ylmethyl-[1,2,4]oxadiazol-3-yl)-benzoic acid], the Activity entry is “****”.

For the compound `O=C(O)c1cccc(-c2noc(-c3cc4ccccc4s3)n2)c1` [Compound 65, 3-(5-Benzo[b]thiophen-2-yl-[1,2,4]oxadiazol-3-yl)-benzoic acid], the Activity result is on record as “*****”.

For the compound `Cc1ccc(F)c(-c2nc(-c3cccc(C(=O)O)c3)no2)c1` [Compound 68, 3-[5-(2-Fluoro-5-methyl-phenyl)-[1,2,4]oxadiazol-3-yl]-benzoic acid], the Activity entry is “***”.

For the compound `O=C(O)c1cccc(-c2noc(-c3ccc(Br)cc3F)n2)c1` [Compound 74, 3-[5-(4-Bromo-2-fluoro-phenyl)-[1,2,4]oxadiazol-3-yl]-benzoic acid], the Activity result is “***”.

Turning to `O=C(O)c1cccc(-c2noc(-c3ccncc3)n2)c1` [Compound 59, 3-(5-Pyridin-4-yl-[1,2,4]oxadiazol-3-yl)-benzoic acid], the Activity result is reported as “***”.

For `C/C=C/c1nc(-c2cccc(C(=O)O)c2)no1` [Compound 30, 3-(5-Propenyl-[1,2,4]oxadiazol-3-yl)-benzoic acid], the Activity result was “****”.

As to `COc1ccc(-c2nc(-c3cccc(C(=O)O)c3)no2)cc1OC` [Compound 62, 3-[5-(3,4-Dimethoxy-phenyl)-[1,2,4]oxadiazol-3-yl]-benzoic acid], the Activity entry was “****”.

Regarding `COCCOCCOCCOCCOCCOC(=O)c1cccc(-c2noc(-c3ccccc3F)n2)c1` [Compound 91, 3-[5-(2-Fluoro-phenyl)-[1,2,4]oxadiazol-3-yl]-benzoic acid 2-(2-{2-[2-(2-methoxy-ethoxy)-ethoxy]-ethoxy}-ethoxy)-ethyl ester], the Activity result was “***”.

Consider `COc1cccc(-c2nc(-c3cccc(C(=O)O)c3)no2)c1` [Compound 20, 3-[5-(3-Methoxy-phenyl)-[1,2,4]oxadiazol-3-yl]-benzoic acid], for which the Activity entry is recorded as “****”.

In the case of `O=C(O)c1cccc(-c2noc(-c3ccc(-c4ccccc4)cc3)n2)c1` [Compound 06, 3-(5-Biphenyl-4-yl-[1,2,4]oxadiazol-3-yl)-benzoic acid], the Activity entry is listed as “****”.

On to `O=C(O)c1cccc(-c2noc(C3CC3)n2)c1` [Compound 27, 3-(5-Cyclopropyl-[1,2,4]oxadiazol-3-yl)-benzoic acid], for which the Activity result was “****”.

Consider `O=C(O)c1cccc(-c2noc(-c3ccccc3F)n2)c1` [Compound 28, 3-[5-(2-Fluoro-phenyl)-[1,2,4]oxadiazol-3-yl]-benzoic acid], for which the Activity result is reported as “*****”.

As for `CN(C)c1ccc(-c2nc(-c3cccc(C(=O)O)c3)no2)cc1` [Compound 18, 3-[5-(4-Dimethylamino-phenyl)-[1,2,4]oxadiazol-3-yl]-benzoic acid], the Activity entry was “****”.

With `O=C(O)c1cccc(-c2noc(-c3cccnc3)n2)c1` [Compound 58, 3-(5-Pyridin-3-yl-[1,2,4]oxadiazol-3-yl)-benzoic acid], the Activity result was “***”.

In the case of `COCCOCCOCCOC(=O)c1cccc(-c2noc(-c3ccccc3F)n2)c1` [Compound 89, 3-[5-(2-Fluoro-phenyl)-[1,2,4]oxadiazol-3-yl]-benzoic acid 2-[2-(2-methoxy-ethoxy)-ethoxy]-ethyl ester], the Activity entry was “**”.

As for `O=C(O)c1cccc(-c2noc(-c3ccno3)n2)c1` [Compound 52, 3-(5-Isoxazol-5-yl-[1,2,4]oxadiazol-3-yl)-benzoic acid], the Activity result was “**”.

With `O=C(O)c1cccc(-c2noc(-c3cc(C(F)(F)F)cc(C(F)(F)F)c3)n2)c1` [Compound 16, 3-[5-(3,5-Bis-trifluoromethyl-phenyl)-[1,2,4]oxadiazol-3-yl]-benzoic acid], the Activity result is “****”.

`O=C(O)c1cccc(-c2noc(-c3ccc(F)c(F)c3)n2)c1` [Compound 39, 3-[5-(3,4-Difluoro-phenyl)-[1,2,4]oxadiazol-3-yl]-benzoic acid]: the Activity result is listed as “*****”.

Take `O=C(O)c1cccc(-c2noc(-c3ccc4nonc4c3)n2)c1` [Compound 23, 3-(5-Benzo[1,2,5]oxadiazol-5-yl-[1,2,4]oxadiazol-3-yl)-benzoic acid]: the Activity entry is recorded as “****”.

On to `O=C(O)c1cc(-c2noc(-c3ccc(F)cc3)n2)ccc1F` [Compound 72, 2-Fluoro-5-[5-(4-fluoro-phenyl)-[1,2,4]oxadiazol-3-yl]-benzoic acid], for which the Activity result is “***”.

As to `O=C(O)c1ccc(F)c(-c2noc(-c3ccc(F)cc3)n2)c1` [Compound 71, 4-Fluoro-3-[5-(4-fluoro-phenyl)-[1,2,4]oxadiazol-3-yl]-benzoic acid], the Activity entry was “*”.

As for `CCc1ccc(-c2nc(-c3cccc(C(=O)O)c3)no2)cc1` [Compound 38, 3-[5-(4-Ethyl-phenyl)-[1,2,4]oxadiazol-3-yl]-benzoic acid], the Activity result is on record as “*****”.

`O=C(O)c1cccc(-c2noc(-c3ccc(C(F)(F)F)cc3)n2)c1` [Compound 17, 3-[5-(4-Trifluoromethyl-phenyl)-[1,2,4]oxadiazol-3-yl]-benzoic acid]: the Activity entry was “*****”.

In the case of `CCCCCOc1ccc(-c2nc(-c3cccc(C(=O)O)c3)no2)cc1` [Compound 02, 3-[5-(4-Pentyloxy-phenyl)-[1,2,4]oxadiazol-3-yl]-benzoic acid], the Activity result is on record as “***”.

Regarding `O=C(O)c1cccc(-c2noc(-c3c(F)cccc3F)n2)c1` [Compound 36, 3-[5-(2,6-Difluoro-phenyl)-[1,2,4]oxadiazol-3-yl]-benzoic acid], the Activity entry is listed as “****”.

For `O=C(O)c1cccc(-c2noc(CC3CCCC3)n2)c1` [Compound 56, 3-(5-Cyclopentylmethyl-[1,2,4]oxadiazol-3-yl)-benzoic acid], the Activity entry was “***”.

On to `O=C(O)c1cccc(-c2noc(-c3ccc(Cl)nc3)n2)c1` [Compound 53, 3-[5-(6-Chloro-pyridin-3-yl)-[1,2,4]oxadiazol-3-yl]-benzoic acid], for which the Activity entry was “****”.

Turning to `O=C(O)c1cccc(-c2noc(-c3ccco3)n2)c1` [Compound 21, 3-(5-Furan-2-yl-[1,2,4]oxadiazol-3-yl)-benzoic acid], the Activity entry was “****”.

As for `O=C(O)c1cccc(-c2noc(-c3cccc(F)c3)n2)c1` [Compound 37, 3-[5-(3-Fluoro-phenyl)-[1,2,4]oxadiazol-3-yl]-benzoic acid], the Activity result is on record as “*****”.

Turning to `O=C(O)c1cccc(-c2noc(-c3cccs3)n2)c1` [Compound 29, 3-(5-Thiophen-2-yl-[1,2,4]oxadiazol-3-yl)-benzoic acid], the Activity result was “****”.
